The text below walks through data of US20080070949A1, “POLYMORPHS OF RIMONABANT” (Cipla Limited, priority 2006, published 2008).

What all share (format): physicochemical
Data set [1] is described as follows: Accelerated stability testing. The settings on record: 40±2° C., 75±5% relative humidity. The procedure: (§1) Long term and accelerated stability testing was carried out on crystalline rimonabant Form C.
(§2) Each sample was hermetically sealed in double HMHDPE bags and placed in fibre drum. Quantity of sample=0.8 gm per analysis. Storage conditions (long term)=30±2C., 65±5% relative humidity. Storage conditions (accelerated)=40±2° C., 75±5% relative humidity.

A short description of data set [2]: Long term stability testing. As to conditions: 30±2C., 65±5% relative humidity. The procedure: as §1, §2
The nature of data set [3]: Comparative intrinsic dissolution study (HPLC-UV method). The settings on record: 900 ml of 1% Sodium Lauryl Sulphate in 0.05 M NaH2PO4 buffer pH 6.6, 50 RPM, 37° C. The procedure: Intrinsic dissolution was studied using an HPLC-UV method with the following parameters:
Dissolution media:—900 ml of 1% Sodium Lauryl Sulphate (SLS) in buffer.
Buffer: 0.05 M NaH2PO4 pH 6.6 with NaOH
Mobile Phase:Buffer:Acetonitrile 30:70 Buffer 0.02 M NaH2PO4 0.1% Triethylamine pH 2.5 with phosphoric acid.
Column: YMC Pack Pro 18 15 cm.
Pressure applied for preparation of pellet=2.5 tonns for 5 mins.
Filter=Whatman 0.45 micron.
The results of the intrinsic dissolution study are illustrated in the graph in FIG. 5.

Setting [4] is: initially, at 1 month, at 2 months and at 3 months.

Each structure is given as a SMILES string.

For `Cc1c(C(=O)NN2CCCCC2)nn(-c2ccc(Cl)cc2Cl)c1-c1ccc(Cl)cc1` [Form C, N-piperidino-5-(4-chlorophenyl)-1-(2,4-dichlorophenyl)-4-methyl-3-pyrazolecarboxamide], the “Assay (98.0%–102.0% w/w)” value came to 101.36 % w/w in data set [1] (1 Month); 100.67 % w/w in data set [1] (2 Months); 99.45 % w/w in data set [1] (3 Months); 99.86 % w/w in data set [1] (Initial); 99.86 % w/w in data set [2] (Initial); 99.13 % w/w in data set [2] (period of keeping (3 months)). The “Chromatographic purity by HPLC Individual impurity NMT 0.10%” value in data set [1] (1 Month), in data set [1] (2 Months), in data set [1] (3 Months), in data set [1] (Initial), in data set [2] (Initial) and in data set [2] (period of keeping (3 months)) was 0.08% in each case. Moreover, the “Chromatographic purity by HPLC Total impurities NMT 1.00%” value in data set [1] (1 Month) amounted to 0.16%; in data set [1] (2 Months), 0.21%; in data set [1] (3 Months), 0.20%; in data set [1] (Initial), 0.20%; in data set [2] (Initial) it was 0.20%; in data set [2] (period of keeping (3 months)), 0.20%. Besides, the “Water Content (By KF) NMT 5.0% w/w” value was found to be 3.94 % w/w in data set [1] (1 Month); 4.27 % w/w in data set [1] (2 Months); 4.07 % w/w in data set [1] (3 Months); 3.08 % w/w in data set [1] (Initial); 3.08 % w/w in data set [2] (Initial); 3.08 % w/w in data set [2] (period of keeping (3 months)). Also, the description of sample result in data set [1] (setting [4]) was “white colour powder”; in data set [2] (initially and at 3 months), “white colour powder”. The “polymorphic identity confirmed by XRPD, IR and DSC” value in data set [1] (setting [4]) is recorded as “Form C”; in data set [2] (initially and at 3 months) it was “Form C”. The Remarks entry in data set [2] (period of keeping (3 months)) is “Product is stable”.
On to `Cc1c(C(=O)NN2CCCCC2)nn(-c2ccc(Cl)cc2Cl)c1-c1ccc(Cl)cc1` [amorphous, N-piperidino-5-(4-chlorophenyl)-1-(2,4-dichlorophenyl)-4-methyl-3-pyrazolecarboxamide], for which the “order of intrinsic dissolution” value in data set [3] was “amorphous >Form C >Form I”.
